Test results published in ChEMBL document CHEMBL1137239, “Accurate prediction of the relative potencies of members of a series of kinase inhibitors using molecular docking and MM-GBSA scoring” (J Med Chem, 2006).

Each molecule was assayed against T1, Aurora kinase A (Homo sapiens, UniProt O14965) (assay: Inhibition of Aurora A).
T1 sequence (O14965 whole entry): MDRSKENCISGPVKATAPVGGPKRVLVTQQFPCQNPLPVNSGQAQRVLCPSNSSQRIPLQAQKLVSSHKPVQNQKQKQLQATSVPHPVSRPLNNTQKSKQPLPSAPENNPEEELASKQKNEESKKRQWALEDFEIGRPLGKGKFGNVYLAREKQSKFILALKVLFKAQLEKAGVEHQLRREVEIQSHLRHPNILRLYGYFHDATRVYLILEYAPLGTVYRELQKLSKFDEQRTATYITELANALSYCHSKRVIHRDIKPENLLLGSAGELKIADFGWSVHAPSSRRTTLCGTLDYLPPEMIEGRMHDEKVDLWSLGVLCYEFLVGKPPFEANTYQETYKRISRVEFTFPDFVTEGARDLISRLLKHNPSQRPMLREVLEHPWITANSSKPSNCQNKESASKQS

Compared with `CCCN(CCC)S(=O)(=O)c1ncc(C(=O)Nc2ncc(Nc3ncnc4cc(OCCCN5CCOCC5)c(OC)cc34)cn2)cn1`, `COc1cc2c(Nc3cnc(NC(=O)c4ccc(Cc5ccccc5)c(Br)c4)nc3)ncnc2cc1OCCCN1CCOCC1` is 56-fold lower in IC50: 3900 nM for the first, 70 nM for the second.

`COc1cc2c(Nc3cnc(NC(=O)c4ccccc4)nc3)ncnc2cc1OC[C@@H](O)CN1CCCCC1` showed an IC50 of 0.8 nM.
